Test results from US20130143244A1, “SOX9 AS A MARKER FOR AGGRESSIVE CANCER” (ADMINISTRATORS OF THE TULANE EDUCATIONAL FUND, priority 2010, published 2013).
Entries after “also recorded” stand apart in the source; their conditions may differ.

How the values were obtained:
Format in all cases: cell-based, human
[1] = system: SOX9 localization in MDA-MB-231 cells; assay: Immunofluorescence microscopy of SOX9 localization; conditions: serum-deprived MDA-MB-231 cells, TSA 500 nM or LMB 5 ng/mL for 4 h, then 10% FBS
Protocol: Cells were grown on sterile glass coverslips in 6 well plates to 30%-40% confluence in their respective media, serum starved for the next 24 h treated with 1 nM all trans retinoic acid, 500 nM TSA or 5 ng/mL Leptomycin B for 4 h and then with 10% FBS for 2-3 h. Coverslips were washed three times in PBS and fixed in 4% paraformaldehyde for 30 minutes. After washing the coverslips again with PBS three times, they were blocked with 10% whole goat serum (Santa Cruz Biotechnology, Inc., Santa Cruz, Calif.) for thirty minutes. Cells were stained with anti-SOX9 (1:1,000 dil) antibody or anti-DDK tag antibody (OriGene Technologies, Inc., Rockville, Md.) and visualized using alexa 488-conjugated or 594-conjugated secondary (1:500 dilution) antibody (Molecular Probes®, Invitrogen Corp., Carlsbad, Calif.) as described previously (Chakravarty et al., Exp Biol Med (Maywood), 234:372-86 (2009)). For analysis, cells were visualized with a Nikon N300 microscope (Nikon Instruments Inc., Melville, N.Y.). Filter sets for FITC and DAPI were used to capture images that were then analyzed with Elements software. To establish that response to growth arrest signals was dependent on SOX9's cellular localization, both cell lines were also cultured on coverslips, serum starved for 24 h, and subsequently exposed to 10% FBS and stained with SOX9 antibody as described above.

[2] = system: p21, SOX9 and acetylated SOX9 in MDA-MB-231 cells; assay: Immunoblot and immunoprecipitation analysis of p21, SOX9 and acetylated SOX9; conditions: for p21 expression, arbitrary units normalized to actin level, change compared to cells grown in 10% FBS medium: TSA 500 nM or LMB 5 ng/ml for 4 h
Protocol: Asynchronous cell populations at a density of 50-60% in 6-well plates were serum deprived for 24 h, treated with TSA (500 nM), or Leptomycin B (5 ng/ml) for the next 4 h and then cultured in the presence of 10% FBS for 2-3 h before harvesting. Immunoblotting was performed by solubilizing cells in RIPA buffer, electrophoresing on 10% SDS-PAGE gels, incubating with primary antibodies for 1-2 h at room temperature, and detecting primary antibodies using HRP-conjugated secondary antibodies (1:30,000 dilution, Santa Cruz Biotechnology Inc.) and Amersham® ECU® (GE Healthcare Bio-Sciences Corp., Piscataway, N.J.) as described in Wang et al., Clin Cancer Res., 12:4755-65 (2006). Western blots were quantified by calculating an integrated density value (IDV) for each band using Bio-Rad's Gel Doc™ system and normalizing to the IDV of actin. For immunoprecipitation, total protein lysates were centrifuged at 14,000×g for 15 minutes at 4° C. Supernatants were then transferred to fresh centrifuge tubes and precleared with 50 μl of protein A Sepharose™ bead slurry (50%) per 1 ml of cell lysate. Incubation was continued at 4° C. for 30 minutes on a rocker or orbital shaker. Protein A beads were then collected by centrifugation at 14,000×g at 4° C. for 5 minutes. Protein concentration of the saved supernatant was determined after removing the beads. Approximately 500 μg to 1 mg of protein from each sample was transferred to fresh centrifuge tubes and diluted to 1 ml with ice cold PBS to reduce the concentration of the detergents in the buffer. The diluted lysates were incubated with 2 μg/mg protein anti-SOX9 antibody and rotated overnight at 4° C. Immuno complexes were captured with slurry of protein A-Sepharose™ CL-4B (Sigma) pre-washed with BSA through rotations for 1 h at 4° C. and washed three times with ice-cold modified RIPA buffer (Tris-HCl: 50 mM, pH 7.4, NP-40:1%, Na-deoxycholate: 0.25%, NaCl: 150 mM, EDTA: 1 mM, PMSF: 1 mM, NaF: 1 mM). Washed Sepharose™ beads were resuspended in 60 μl RIPA buffer with SDS dye and resolved on 10% SDS-PAGE gels. Blotted proteins were immunoprobed with antilysine antibody to detect the levels of acetylated SOX9.

[3] = system: MDA-MB-231 cells; assay: MTT cytotoxicity assay; conditions: for growth of MDA-MB-231 cells relative to control (cell viability by MTT): serum starved, increasing drug concentrations (TSA 50-500 nM, LMB 0.5-10 ng/ml), 48 h; for cell death: serum starved MDA-MB-231 cells, increasing drug concentrations
Protocol: MTT cytotoxicity assay: MDA-MB-231 or MCF7 cells were plated onto 96 well plates at a density of 2.5×10^3 cells/well. Cells were allowed to attach overnight and serum starved for the next 24 h. Following starvation, cells were treated with increasing concentration of Trichostatin A (50-500 nM) or Leptomycin B (0.5-10 ng/ml) and allowed to grow for next 24 h. At the end of 24 h drug treatment, media was supplemented with an equal volume of media with 20% FBS. An MTT assay was used to determine cell viability after exposure to test compounds for 48 h, including the 24 h of incubation with 10% FBS. Briefly, 10 μl of MTT reagent (5 mg/ml in PBS) was added to each well, the plate was incubated for 2-4 h to allow for the formation of formazan crystals, the media was aspirated from all wells and crystals were dissolved with 150 μl DMSO. The optical densities were measured at 540 nm on a BioTek uQuant microplate spectrophotometer (BioTek Instruments, Inc., Winooski, Vt.) and the percent of surviving cells was calculated with respect to control or untreated cells. For the modified MTT assay, the classical MTT reagent was replaced with WST-8, which produces a water soluble formazan dye upon bioreduction. For this assay, at the end of drug treatment, cells were incubated with 10 μl of WST-8 per 100 μl media/per well for 2-3 h. O.D. at 450 nm was measured to determine cell viability in each well.

[4] = system: MDA-MB-231 cells; assay: Gene expression profiling using RT2 Profiler PCR Array; conditions: MDA-MB-231 cells serum starved, TSA for 4 h, then FBS
Protocol: MDA-MB-231 cells with or without TSA treatment were harvested for total RNA using Trizol (Invitrogen) and reverse transcribed using RT^2 first strand kit from SABiosciences (Frederick, Md.). Real-Time PCR was performed according to the RT^2 Profiler PCR Array User manual (SABiosciences) using SYBR Green PCR Master Mix for the CFX96™ Real-Time PCR detection system from Bio-Rad (Bio-Rad Laboratories, Inc., Hercules, Calif.). The PAHS-090C PCR Array was repeated twice for each cDNA sample and the data were analyzed using Excel-based PCR Array Data Analysis Templates from SABiosciences.
The average Ct value of each gene obtained from duplicate experiments was used to calculate its expression value, which was expressed as 2−ΔCt (ΔCt=CtGOI−Ave CtHKG; GOI=gene of interest, HKG=housekeeping gene, Ave CtHKG=average Ct value of five housekeeping genes).

[5] = system: beta catenin reporter (TOP-flash/FOP-flash) in MDA-MB-231 cells; assay: TOP-flash / FOP-flash beta catenin reporter transfection experiment
Protocol: The Col2a1 reporter gene (Lefebvre et al., Mol Cell Biol, 17:2336-46 (1997)) was kindly provided by Prof. Benoit deCrombrugghe's laboratory. The beta catenin reporter set containing the plasmids TOP-flash and FOP-flash were made available by Prof. Randall Moon's laboratory.
For transfection, MDA-MB-231 cells were cultivated at 2.5×10^5 cells per well in 6-well plates. Twenty four hours later, transfection was performed using lipofectamine 2000 (Invitrogen) according the manufacturer's instruction. Cells in 6-well plates were transfected with 0.250 μg DNA of Col2a1 reporter or […] DNA of Top-flash or Fop-flash reporters, 10 ng of Renilla luciferase and 1.0 μg of wild type DDK tagged SOX9 per well. Top-flash or Fop-flash reporter transfected wells were treated with 15-ng/ml recombinant wnt3a protein (R&D Systems, Inc., Minneapolis, Minn.) after 24 h of transfection. All transfected cells were lysed directly in Promega's Dual Luciferase lysis buffer and collected with a cell scrape. Luciferase measurement was performed using a Optocomp I luminometer (MGM Instruments, Inc., Hamden, Conn.). Cellular localization of wild type DDK tagged SOX9 was detected using immunofluorescence as described above.

Row | Molecule | nuclear localization of SOX9 [1] | p21 expression, arbitrary units normalized to actin level, change compared to cells grown in 10% FBS medium ([2]; western blot) | growth of MDA-MB-231 cells relative to control (cell viability by MTT) [3] | cell death [3] | gene expression profile with versus without TSA treatment [4] | acetylation of endogenous SOX9 protein ([2]; TSA 500 nM for 4 h, immunoprecipitation and anti acetylated lysine blot) | endogenous SOX9 protein expression, arbitrary units normalized to actin level, increase ([2]; TSA 500 nM for 4 h, western blot) | induction of TOP-flash reporter, wnt3a treated versus untreated cells ([5]; MDA-MB-231 cells transfected with wild type (nuclear) SOX9, 15 ng/ml recombinant wnt3a) | FOP-FLASH reporter activity, wnt3a treated versus untreated cells ([5]; MDA-MB-231 cells, mutated LEF-1/TCF-binding sites control vector)
1 | CCC(=C/[C@H](C)C/C=C/C(C)=C/[C@@H](C)C(=O)[C@@H](C)[C@H](O)[C@@H](C)C/C(C)=C/C(=O)O)/C=C/[C@@H]1OC(=O)C=C[C@@H]1C [LMB, leptomycin B] | unable to retain SOX9 in the nucleus; also recorded: unaffected | 0.08 fold | unaffected | unable to retain SOX9 in the nucleus or induce cell death; also recorded: unaffected | – | – | – | – | –
2 | CC(/C=C/C(=O)NO)=C\[C@@H](C)C(=O)c1ccc(N(C)C)cc1 [TSA, [R-(E,E)]-7-[4-(Dimethylamino)phenyl]-Nhydroxy-4,6-dimethyl-7-oxo-2,4-heptadienamide] | marked increase in nuclear SOX9 staining; also recorded: enhanced nuclear localization of SOX9 | 1.3 fold | decrease in proliferative potential; also recorded: markedly heightened sensitivity to growth inhibition | dose dependent increase in cell death | several fold higher expression of genes involved in growth, development and differentiation and downregulation of migration, motility and cytoskeletal genes | enhanced acetylation of endogenous SOX9 protein | 1.2 fold | – | –
3 | wnt3a: recombinant wnt3a protein (R&D Systems) used to activate wnt signaling (protein, UniProt P56704 19-352, looked up) Protein Wnt-3a: SYPIWWSLAVGPQYSSLGSQPILCASIPGLVPKQLRFCRNYVEIMPSVAEGIKIGIQECQHQFRGRRWNCTTVHDSLAIFGPVLDKATRESAFVHAIASAGVAFAVTRSCAEGTAAICGCSSRHQGSPGKGWKWGGCSEDIEFGGMVSREFADARENRPDARSAMNRHNNEAGRQAIASHMHLKCKCHGLSGSCEVKTCWWSQPDFRAIGDFLKDKYDSASEMVVEKHRESRGWVETLRPRYTYFKVPTERDLVYYEASPNFCEPNPETGSFGTRDRTCNVSSHGIDGCDLLCCGRGHNARAERRREKCRCVFHWCCYVSCQECTRVYDVHTCK | – | – | – | – | – | – | – | 22 fold | unchanged
